{"source": "paper PMC4666608", "about": "“Metabolic Profiling of Chicken Embryos Exposed to Perfluorooctanoic Acid (PFOA) and Agonists to Peroxisome Proliferator-Activated Receptors” (PLoS ONE, 2015)", "test_system": "chicken embryos", "test": "Metabolic profiling of blood plasma (GC-MS, LC-MS, OPLS-DA)", "assay_type": "in vivo, Gallus gallus domesticus", "experimental": "Controls were injected with 20 μL vehicle only (DMSO).\nPlasma was collected and stored at -70°C.\nMetabolites in allantoic fluid and blood plasma were analyzed using gas chromatography-mass spectrometry (GC-MS) and liquid chromatography-mass spectrometry (LC-MS) as described in S1 Methods. Prior to GC-MS and LC-MS analysis, allantoic fluid (100 μL) and blood plasma (50 μL) were extracted. To each sample, 900 μL (allantoic fluid) or 450 μL (blood plasma) of extraction buffer (90/10 v/v methanol:water) including all internal standards were added. Standards for GC-MS were proline, succinic acid, glutamic acid, salicylic acid, alpha-ketoglutarate, putrescine, myristic acid, hexadecanoic acid, cholesterol, and sucrose. Standards for LC-MS were Val-Tyr-Val, Leu-enkephalin, sulfadimethoxine and reserpine. Samples were homogenized by shaking in a bead mill at a frequency of 30 Hz for 3 minutes and proteins were precipitated at +4°C on ice. The samples were centrifuged at +4°C, 14000 rpm, for 10 min. Then, 200 μL supernatant was transferred to a GC microvial and 200 μL was transferred to an LC microvial, and solvents were evaporated. Samples from the four replicate experiments were analyzed using in chronological order and within each replicate experiment the run order of the individual samples was randomized.\nMultivariate statistical analyses of metabolite profiles were performed using the software package SIMCA-P version 13.0 (Umetrics, Umeå, Sweden). Data was centered and scaled to variance 1 (UV scaling) prior to modelling. To reduce unintended systematic variation caused by sample processing and instrument drift, GC-MS and LC-MS metabolite amounts (expressed as the area under the chromatographic peak) were normalized by Orthogonal Partial Least Squares analysis (O2PLS) prior to multivariate data analysis. O2PLS finds common (predictive) and unique (orthogonal) variation in two data matrices. If applied to find the common variation between the data matrix containing the measured metabolite concentrations and a matrix containing only the internal standards, the only common (predictive) variation expected is due to the unintended systematic variation. By deleting the contribution of the predictive latent variables, that variation can be removed from the data. Models obtained after this normalization contain in general less latent variables, and this simplification helps when deciding on the number of latent variables to be used. Following normalization, GC-MS and LC-MS data were analyzed together. Initially, a global Principal Component Analysis (PCA) was performed to get an overview of groups and trends and to identify outliers. Projections to latent structures by means of Orthogonal Partial Least Squares Discriminant Analysis (OPLS-DA) was used to model the relationship between the X-matrix (metabolite concentrations) and the Y matrix (class, i.e. exposure group or sex), and to find x-variables that were related to class belonging. OPLS-DA is a supervised prediction and regression method that rotates the projection plane to find the maximum covariance between the data and the class assignment. All groups were first analyzed together in a 5-class OPLS-DA and then each exposure group was analyzed against the control group in a 2-class OPLS-DA. Sex differences were analyzed both using the whole data set and in each group separately using 2-class OPLS-DA, with females and males as the two classes. Only variables with 80% or more nonzero values were included in the statistical models. […] The validity of each model was also checked using CV-ANOVA (ANOVA of the cross-validated residuals). A significance level of p < 0.05 was used. For each model, R ^2 X, R ^2 Y and Q ^2 values were calculated, where R ^2 X is a measure of the fraction of x variation modeled in the extracted latent variables, R ^2 Y is a measure of the fraction of y variation modeled and Q ^2 is an estimate of the predictive ability of the model and is calculated by cross-validation. […]", "note": "Marks after values point to notes of the source that are not given here.", "data": [{"smiles": "CC(C)(Sc1ccc(CCN(CCCCC2CCCCC2)C(=O)NC2CCCCC2)cc1)C(=O)O", "note": "[GW7647, reference compound]", "values": [{"measurement": "Mean concentration relative to control, feature Win006_C03", "setting": "GC", "value": "1.3***"}, {"measurement": "Mean concentration relative to control, feature Win011_C02 (Isoleucine)", "setting": "GC", "value": "1.2**"}, {"measurement": "Mean concentration relative to control, feature Win027_C13", "setting": "GC", "value": 0.9}, {"measurement": "Mean concentration relative to control, feature Win031_C03 (Citric acid)", "setting": "GC", "value": "0.8**"}, {"measurement": "Mean concentration relative to control, feature Win034_C08 (Tyrosine)", "setting": "GC", "value": "1.2***"}, {"measurement": "Mean concentration relative to control, feature Win034_C09 (Tyrosine)", "setting": "GC", "value": "1.3***"}, {"measurement": "Mean concentration relative to control, feature Win039_C07", "setting": "GC", "value": "1.8***"}, {"measurement": "Mean concentration relative to control, feature Win043_C02 (Cystathionine)", "setting": "GC", "value": "1.6***"}, {"measurement": "Mean concentration relative to control, feature Win061_C01", "setting": "GC", "value": "1.4*"}, {"measurement": "Mean concentration relative to control, feature Win066_C03", "setting": "GC", "value": "1.3**"}, {"measurement": "Mean concentration relative to control, feature Win088_C02", "setting": "GC", "value": "1.2**"}, {"measurement": "Mean concentration relative to control, feature 118.0284@2.480333 (C4H6O4)", "setting": "LC", "value": 0.9}, {"measurement": "Mean concentration relative to control, feature 122.0486@0.675613", "setting": "LC", "value": "0.7**"}, {"measurement": "Mean concentration relative to control, feature 126.0428@1.2278157 (Thymine)", "setting": "LC", "value": "1.2***"}, {"measurement": "Mean concentration relative to control, feature 146.0362@0.7772238", "setting": "LC", "value": "1.3**"}, {"measurement": "Mean concentration relative to control, feature 159.0686@1.1608156", "setting": "LC", "value": "1.6**"}, {"measurement": "Mean concentration relative to control, feature 164.0449@0.7694838", "setting": "LC", "value": "1.2**"}, {"measurement": "Mean concentration relative to control, feature 202.1024@5.0303197 (C8H14N2O4)", "setting": "LC", "value": "1.4**"}, {"measurement": "Mean concentration relative to control, feature 203.1162@0.5130696", "setting": "LC", "value": "0.8***"}, {"measurement": "Mean concentration relative to control, feature 213.2458@7.4887733", "setting": "LC", "value": 1}, {"measurement": "Mean concentration relative to control, feature 215.047@1.6260729 (C5H14NO6P)", "setting": "LC", "value": "0.8***"}, {"measurement": "Mean concentration relative to control, feature 226.0721@1.9460537", "setting": "LC", "value": "1.1**"}, {"measurement": "Mean concentration relative to control, feature 231.0174@1.6241412", "setting": "LC", "value": "0.7**"}, {"measurement": "Mean concentration relative to control, feature 233.1265@2.535991", "setting": "LC", "value": "1.4**"}, {"measurement": "Mean concentration relative to control, feature 250.1317@2.1334834", "setting": "LC", "value": "1.7**"}, {"measurement": "Mean concentration relative to control, feature 260.0508@0.69984084", "setting": "LC", "value": 0.8}, {"measurement": "Mean concentration relative to control, feature 276.0173@1.6283482", "setting": "LC", "value": "0.7**"}, {"measurement": "Mean concentration relative to control, feature 278.0939@1.3354088", "setting": "LC", "value": "0.8***"}, {"measurement": "Mean concentration relative to control, feature 293.0903@1.5739433", "setting": "LC", "value": "1.2***"}, {"measurement": "Mean concentration relative to control, feature 307.2147@7.5065937 (C18H29NO3)", "setting": "LC", "value": 0.9}, {"measurement": "Mean concentration relative to control, feature 310.178@7.5343466", "setting": "LC", "value": 1}, {"measurement": "Mean concentration relative to control, feature 339.3861@9.528681", "setting": "LC", "value": 1.1}, {"measurement": "Mean concentration relative to control, feature 342.2883@7.526812", "setting": "LC", "value": 1.1}, {"measurement": "Mean concentration relative to control, feature 348.0675@1.5761927", "setting": "LC", "value": "1.1**"}, {"measurement": "Mean concentration relative to control, feature 355.9454@0.68034226", "setting": "LC", "value": "0.9**"}, {"measurement": "Mean concentration relative to control, feature 362.1467@0.8461036", "setting": "LC", "value": "1.2***"}, {"measurement": "Mean concentration relative to control, feature 366.1431@1.4228548", "setting": "LC", "value": 1.1}, {"measurement": "Mean concentration relative to control, feature 373.296@9.044806", "setting": "LC", "value": "0.8***"}, {"measurement": "Mean concentration relative to control, feature 375.3108@8.995564", "setting": "LC", "value": "0.8**"}, {"measurement": "Mean concentration relative to control, feature 389.2686@9.046645", "setting": "LC", "value": "0.9**"}, {"measurement": "Mean concentration relative to control, feature 407.0999@1.585909", "setting": "LC", "value": 1}, {"measurement": "Mean concentration relative to control, feature 412.135@2.4779084 (C17H24N4O6S)", "setting": "LC", "value": 0.9}, {"measurement": "Mean concentration relative to control, feature 444.3607@10.33052", "setting": "LC", "value": 0.9}, {"measurement": "Mean concentration relative to control, feature 471.9819@0.685074", "setting": "LC", "value": "0.8*"}, {"measurement": "Mean concentration relative to control, feature 489.1508@8.562614", "setting": "LC", "value": "0.7**"}, {"measurement": "Mean concentration relative to control, feature 509.1184@2.4798179", "setting": "LC", "value": 1}, {"measurement": "Mean concentration relative to control, feature 525.2855@8.361063", "setting": "LC", "value": "1.4**"}, {"measurement": "Mean concentration relative to control, feature 545.2492@8.463657", "setting": "LC", "value": "1.2*"}, {"measurement": "Mean concentration relative to control, feature 558.4095@9.459733", "setting": "LC", "value": 1.3}, {"measurement": "Mean concentration relative to control, feature 565.1902@0.7699907", "setting": "LC", "value": "1.2***"}, {"measurement": "Mean concentration relative to control, feature 577.2747@9.25652", "setting": "LC", "value": "1.2**"}, {"measurement": "Mean concentration relative to control, feature 581.1643@0.77029324", "setting": "LC", "value": "1.3***"}, {"measurement": "Mean concentration relative to control, feature 634.2403@1.9467853", "setting": "LC", "value": "1.5*"}, {"measurement": "Mean concentration relative to control, feature 644.1614@0.7647065", "setting": "LC", "value": "1.2**"}, {"measurement": "Mean concentration relative to control, feature 659.5483@11.4915495", "setting": "LC", "value": "0.7***"}, {"measurement": "Mean concentration relative to control, feature 698.2598@1.3599721", "setting": "LC", "value": 1.1}, {"measurement": "Mean concentration relative to control, feature 700.5514@10.765638", "setting": "LC", "value": "1.4*"}, {"measurement": "Mean concentration relative to control, feature 755.5465@10.73882", "setting": "LC", "value": 0.9}, {"measurement": "Mean concentration relative to control, feature 827.5078@8.831237", "setting": "LC", "value": "1.5*"}, {"measurement": "Mean concentration relative to control, feature 875.4661@10.5661745", "setting": "LC", "value": "1.3***"}, {"measurement": "Mean concentration relative to control, feature 1262.4865@1.947075", "setting": "LC", "value": "1.1**"}, {"measurement": "Mean concentration relative to control, feature 1316.4163@1.9465046", "setting": "LC", "value": "1.1**"}, {"measurement": "Mean concentration relative to control, feature 1591.051@5.0189176", "setting": "LC", "value": "0.8**"}, {"measurement": "Mean concentration relative to control, feature 1591.388@5.0202384", "setting": "LC", "value": "0.8***"}, {"measurement": "Mean concentration relative to control, feature 1591.7203@5.018071", "setting": "LC", "value": "0.8**"}]}]}
